In the METLIN SMRT retention time set (Domingo-Almenara et al. 2019):

Assay: gradient 5% acetonitrile 3 min, to 50% in 2 min, to 85% in 15 min, held 3 min, 100 µL/min
Details: column: Zorbax Extend-C18 2.1 x 50 mm; eluents: water / acetonitrile, 0.1% formic acid
Method in brief: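 The mobile phases were water and acetonitrile, each with 0.1% formic acid, pumped at 100 μL/min through a Zorbax Extend-C18 column (2.1 × 50 mm, 1.8 μm). Pure standards were injected as mixtures of ~100 molecules and detected by a quadrupole time-of-flight mass spectrometer in positive and negative ionization mode. Retention time came from computationally picked adduct peaks, each inspected by hand.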

RP-LC retention time | SMILES
622 s | CC(C)C(=O)NCCc1csc(C2CCCN(C(=O)C3CCCO3)C2)n1 (centres undefined)
1140 s | CC(=O)c1ccc2c(c1)[C@@H]1C=CC[C@@H]1[C@H](c1cc3c(cc1Br)OCO3)N2
606 s | O=C(Nc1ccc2c(c1)OCCO2)c1cc(-c2ccncc2)n[nH]1
1190 s | CCSc1nnc(NC(=O)c2nnn(-c3nc4c(s3)CCCC4)c2C)s1
749 s | N#Cc1cccc(C(=O)N2CCN(c3cc(-c4ccccc4)[nH]n3)CC2)c1
845 s | CCc1ccccc1NC(=O)c1cccn1Cc1noc(C)n1
561 s | COCCn1c(C2CCN(C(=O)c3cccc(Cl)c3)C2)nc2ccncc21 (centres undefined)
826 s | COc1ccccc1NC(=O)Cn1nc2cc(C)nc(-c3cccc(F)c3)n2c1=O
590 s | Cc1noc(CNC(=O)C2CCN(C(=O)Cc3ccccc3Cl)CC2)n1
592 s | O=C(NCCCN1CCCCCC1)C1CCCN(c2nn3c(=O)c4c(nc3s2)CCCC4)C1 (centres undefined)
959 s | CCN1C(=O)C(C)(C(=O)Nc2cc(OC)ccc2OC)Oc2cccnc21 (centres undefined)
677 s | Cc1c(C(C)(C(=O)O)c2c(C)n(C)c3ccccc23)c2ccccc2n1C
568 s | COc1cc(CN2CC(N(Cc3ccncc3)S(C)(=O)=O)C2)cc(OC)c1
642 s | O=C(NCCCN1CCCC1)c1ccc2nc(Cc3ccccc3)oc2c1
700 s | O=C(NCCC1CCN(C(=O)Nc2ccc(F)cc2F)CC1)c1ccco1
833 s | Cc1cc(C)n(-c2ccnc(N3CCC(C(=O)NCc4ccc(F)cc4)CC3)n2)n1
946 s | Cc1ccc(CNC(=O)Cn2nc(C)c3nn(-c4ccccc4)c(-n4cccc4)c3c2=O)o1
714 s | COc1ccc(-c2cc(N3CCN(C(=O)c4cccs4)CC3)n[nH]2)cc1
1090 s | CCn1c(=O)c2ccccc2n(Cc2nc(-c3ccc(Cl)cc3)no2)c1=O
841 s | CCOC(=O)N1CCN(C(=O)CSCC(=O)Nc2nc(-c3ccc(OC)cc3)cs2)CC1
670 s | COC(=O)c1cc(N2CCN(C)CC2)nc2c(C)cccc12
858 s | O=C(NC1CCCCCCC1)C1CCN(C(=O)c2ccc(F)cc2)CC1

RP-LC retention time | SMILES
766 s | OC(CN1CCCCC1)c1ccc(/C=C/c2ccc(Cl)cc2)cc1 (centres undefined)
597 s | O=C1CCCc2cc(S(=O)(=O)Nc3ccc(CN4CCCCC4)cc3)ccc2N1
645 s | CCCCN(CCCNC(=O)C1CCN(S(=O)(=O)CC)CC1)c1ccccc1
567 s | CN1CCc2[nH]cnc2C12CCN(C(=O)Nc1ccc(Cl)cc1F)C2 (centres undefined)
589 s | CN(C)C[C@@H]1CN(c2ncccn2)C[C@H]1NS(=O)(=O)c1ccc(C#N)cc1
653 s | CCC(CN(C)Cc1ccccc1)NC(=O)CSc1nc2ccccc2n(C)c1=O (centres undefined)
742 s | O=C(NCc1csc(C2CCCN(C(=O)c3c(F)cccc3F)C2)n1)C1CCC1 (centres undefined)
928 s | O=C(c1cn(-c2ccc(-c3nc(C4CC4)no3)cn2)cn1)N1CCCCCC1
554 s | Cn1ccc(CN2CCN(Cc3ccccc3F)CC2)cc1=O
937 s | CCc1ccc(CNC(=O)C2CCCN(c3ccc(=O)n(-c4cccc(F)c4)n3)C2)cc1 (centres undefined)
486 s | Cc1cc(C(=O)O)c2cc(F)ccc2n1
913 s | COc1ccc(NC(=O)Nc2nccn(-c3ccc(C)c(C)c3)c2=O)cc1OC
721 s | O=C(Cn1cnc2nc(N3CCCC(C(=O)NC4CC4)C3)sc2c1=O)Nc1ccc(Cl)cc1 (centres undefined)
1100 s | Cc1ccccc1Nc1c(-c2cccc(Br)c2)nc2ccc(Cl)cn12
809 s | CCCNC(=O)N1CCCN(C2=NS(=O)(=O)C(c3ccc(C)c(C)c3)=C2C)CC1
673 s | O=C(NC1CCCCC1)C1CCN(C(=O)c2cccn2-c2cccnc2)CC1
752 s | O=C(Nc1ccc(F)cc1)N1CC2CN(S(=O)(=O)c3ccccc3)CC(C1)O2
791 s | Cc1ccc(NS(=O)(=O)c2cc(-c3[nH]ncc3C(=O)N3CCCCC3)oc2C)c(C)c1
1120 s | Fc1ccc(C2Cn3nnc(-c4nc(-c5ccccc5)no4)c3CO2)cc1 (centres undefined)
777 s | Cc1ccc(C)c(N2CCN(c3ccncc3N)CC2)c1
687 s | COc1ccc(NC(=O)Nc2cccc(-c3cn4cccnc4n3)c2)cc1
918 s | CCn1cc(-c2nc(CC(=O)Nc3ccc(OC)c(Cl)c3)cs2)c2cccnc21

RP-LC retention time | SMILES
990 s | O=C(Nc1cccc(Br)c1)c1cnc(-c2ccccc2)nc1-c1ccncc1
884 s | COc1ccc(-c2nc3cnccn3c2Nc2ccc(Br)cc2)cc1OC
1020 s | Cc1nc(-c2ccccc2Cl)sc1C(=O)NCCc1c[nH]c2ccccc12
687 s | O=C1c2c(O)cc(O)cc2OC(c2ccc(O)c(O)c2)C1O (centres undefined)
637 s | COc1cc(OC)c(NC(=O)Cc2cn3cc(F)ccc3n2)cc1Cl
906 s | Cc1ccc2[nH]cc(CCNC(=O)C(C)n3c4ccccc4c4cnn(C)c(=O)c43)c2c1 (centres undefined)
596 s | CCNc1cc(N2CCC(CCC(=O)N3CCCN(c4ncccn4)CC3)CC2)ncn1
689 s | O=C(c1ccc(F)cc1)N1CCCN(c2nnc3ccc(Cl)cn23)CC1
632 s | CCCN1C(=O)C(CC(=O)NCCOC)Sc2ncccc21 (centres undefined)
731 s | COc1ccc(-n2cc(C(=O)O)c3c2C(C(F)(F)F)CC(=O)N3)c(OC)c1 (centres undefined)
774 s | COc1ccc(NC(=O)N2CCC(CC(=O)N3CCCCC3)CC2)cc1Cl
872 s | COc1cccc(CNC(=O)C2(C)CCCN(C(=O)Nc3cccc(F)c3)C2)c1 (centres undefined)
632 s | CCc1ccccc1S(=O)(=O)N1CCN(c2nc3ccncc3n(C(C)C)c2=O)CC1
1170 s | COc1cc(C(=O)Nc2nc3c(s2)Cc2c(Br)ccc(OC)c2-3)cc(OC)c1OC
667 s | COCCCNC(=O)C1CC(=O)N(CCc2c[nH]c3ccc(C)cc23)C1 (centres undefined)
723 s | COc1cc(NC(=O)N2CCN(c3ccc(=O)n(-c4ccc(F)cc4)n3)CC2)cc(OC)c1OC
1050 s | COc1cccc(S(=O)(=O)N2CCc3nc(-c4ccccc4)ncc3C2)c1
745 s | COc1ccccc1NC(=O)N1CCC2(CC1)NC(=O)c1ccc(F)cc1N2C
686 s | CCN(Cc1ccncc1)C1CN(S(=O)(=O)c2ccc3c(c2)CCC3)C1
1120 s | COc1cccc(C(C)NC(=O)C2CCCN(c3nccnc3Sc3ccc(C)cc3)C2)c1 (centres undefined)
915 s | COc1ccc(N2C(=O)C3N=NN(Cc4nc(-c5ccc(C)cc5)no4)C3C2=O)cc1OC (centres undefined)
878 s | CCCNC(=O)c1cn2ccnc(-c3ccc(C)cc3)c2n1

RP-LC retention time | SMILES
624 s | Cc1ccc(NC(=O)Nc2ccc3nc(N4CCN(C)CC4)cc(C)c3c2)c([N+](=O)[O-])c1
960 s | CCc1nc(-c2csc(S(=O)(=O)N3CCCC(C(=O)NCc4ccccc4)C3)c2)no1 (centres undefined)
899 s | CCC(CC)C(=O)N1CCc2c(c(-c3nnc(-c4ccccc4Cl)o3)nn2C)C1
1000 s | COC(=O)c1cc(S(=O)(=O)N2CCCC2C(=O)Nc2ccc(C)cc2Br)cn1C (centres undefined)
944 s | COCCN1C(=O)c2ccccc2C(C(=O)NCCCc2ccccc2)C12CCCC2 (centres undefined)
719 s | CCCNC(=O)c1nc(N2CCSCC2)c2cnn(C)c2n1
735 s | Cc1nc(Nc2ccc(Br)cn2)sc1C(=O)NC1CC1
636 s | Cc1cc(CNC(=O)NC(C)(C)C)on1
1060 s | Cc1ccc(C)c(-c2coc(-c3ccc(N)cc3)n2)c1
664 s | O=C(NCc1cccc(Cl)c1)C1CCCN(c2nc3ncccc3n3cccc23)C1 (centres undefined)
941 s | CC(NC(=O)c1ccco1)c1nc(-c2ccc(N3CCCC3)cc2)no1 (centres undefined)
816 s | CC1CCC(NC(=O)C2CCN(C(=O)c3ncn4c3COC(c3ccccc3)C4)CC2)CC1 (centres undefined)
686 s | COc1ccc2[nH]cc(CCn3ccc4c(nnc5ccnn54)c3=O)c2c1
883 s | CCCCN(C)c1nc(-c2ccc([N+](=O)[O-])cc2)nc2ccccc12
641 s | CCc1nc2cccnc2n1CCN1CCN(C(=O)Nc2ccccc2Br)CC1
943 s | COC(=O)C1=CN(c2cc(C)cc(C)c2)c2ccccc2S1(=O)=O
1030 s | O=C1c2ccccc2C(=O)c2sc(Nc3ccc(Cl)cc3)nc21
582 s | CCOC(=O)CNC(=O)Nc1ccc2nc(N3CCOCC3)cc(C)c2c1
678 s | COc1cc(NC(=O)Nc2c(-c3ccc(F)cc3)nc3ccccn23)cc(OC)c1
909 s | O=C(CSc1ccc(F)cc1)NCC1(c2ccc(F)cc2)CC1

SMILES | RP-LC retention time
Cc1ncc2c(n1)C[C@@H]1CC[C@H]2N1C(=O)NCc1ccccc1 | 642 s
O=C(C1CC(=O)N(c2ccc3c(c2)CCN3C(=O)C2CC2)C1)N1CCC2(CC1)OCCO2 (centres undefined) | 652 s
Cc1noc(C)c1S(=O)(=O)N1[C@H]2CC[C@@H]1c1cnc(-c3ccccc3)nc1C2 | 1050 s
